Source: patent US12384753B2, “17-beta-hydroxysteroid dehydrogenase type 13 inhibitors and methods of use thereof” (Enanta Pharmaceuticals, Inc., priority 2021, dated 2025)

What follows are compounds tested against Recombinant human HSD17B13 (Homo sapiens (Human), UniProt Q7Z5P4) (assay: HSD17B13 rapid-fire mass spectrometry assay (RF/MS assay)). Conditions: inhibition of HSD17B13; LTB4 10 μM, NAD+ 0.5 mM, RT 3 h; IC50 ranges A-E.
Sequence of Recombinant human HSD17B13 (Q7Z5P4 20-300): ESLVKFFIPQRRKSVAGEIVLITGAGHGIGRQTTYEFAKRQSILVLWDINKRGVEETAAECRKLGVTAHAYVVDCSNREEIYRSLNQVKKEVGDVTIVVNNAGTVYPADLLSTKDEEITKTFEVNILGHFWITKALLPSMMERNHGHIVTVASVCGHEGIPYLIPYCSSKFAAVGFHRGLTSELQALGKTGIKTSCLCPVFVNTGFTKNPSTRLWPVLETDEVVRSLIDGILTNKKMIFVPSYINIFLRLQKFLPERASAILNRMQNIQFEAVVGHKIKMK
Type: biochemical
Outline: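 Sf9-expressed human HSD17B13 (80 nM) with 10 μM LTB4 and 0.5 mM NAD+, incubated with compound (0–100 μM) for 3 h at RT in Tris pH 7.5/BSA/Tween-20. After formic acid quench, LTB4 conversion to 12-oxo-LTB4 measured by RapidFire MS/MS. IC50 from normalised residual activity, duplicates.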
Compound COc1cc(C(=O)O)c(F)cc1NS(=O)(=O)c1cnn(-c2ccc(C3CCCCC3)cc2)c1 [Example 656] has an IC50 of 100 to 500 nM.
Work on CC[C@H]1CC[C@H](c2ccc(-c3nc4ccc(S(=O)(=O)Nc5cc(F)c(C(=O)O)cc5OC)cc4s3)cc2)CC1 [Example 658] yielded an IC50 of 1000 to 100000 nM.
COc1cc(C(=O)O)c(F)cc1NS(=O)(=O)c1ccc2nc(-c3ccc([C@H]4CC[C@H](C(F)(F)F)CC4)cc3)sc2c1 [Example 659] showed an IC50 of 500 to 1000 nM.
For CC1(C)CCC(c2ccc(-c3nc(S(=O)(=O)Nc4ccc(C(=O)O)cc4)cs3)cc2)CC1 [Example 660], the IC50 was 100 to 500 nM.
COc1cc(C(=O)O)c(F)cc1NS(=O)(=O)c1ccc2nc(-c3ccc(C4CCCCC4)cc3)sc2c1 [Example 661] was tested, and the IC50 was 100 to 500 nM.
In the case of COc1cc(C(=O)O)c(F)cc1NS(=O)(=O)c1ccc2sc(-c3ccc(C4CCCC4)cc3)nc2c1 [Example 662], the IC50 is reported as 100 to 500 nM.
COc1cc(C(=O)O)c(F)cc1NS(=O)(=O)c1ccc2sc(-c3ccc(C4CCC4)cc3)nc2c1 [Example 663] showed an IC50 of 100 to 500 nM.
For COc1cc(C(=O)O)c(F)cc1NS(=O)(=O)c1ccc2sc(-c3ccc(C4CCC(C)(C)CC4)cc3)nc2c1 [Example 664], the IC50 was 100 to 500 nM.
Work on COc1cc(C(=O)O)c(F)cc1NS(=O)(=O)c1nc(-c2ccc(C3CCCCC3)cc2)sc1C [Example 665] yielded an IC50 of 100 to 500 nM.
For COc1cc(C(=O)O)c(F)cc1NS(=O)(=O)c1nc(-c2ccc(C3CCC(C)(C)CC3)cc2)sc1C [Example 666], the IC50 was 100 to 500 nM.
CC[C@H]1CC[C@H](c2ccc(-c3nc(S(=O)(=O)Nc4cc(F)c(C(=O)O)cc4OC)c(C)s3)cc2)CC1 [Example 667] gave an IC50 of 100 to 500 nM.
COc1cc(C(=O)O)c(F)cc1NS(=O)(=O)c1ccc2sc(-c3ccc(-c4ccccc4)cc3)nc2c1 [Example 668] was tested, and the IC50 was 100 to 500 nM.
COc1cc(C(=O)O)c(F)cc1NS(=O)(=O)c1ccc2sc(-c3ccc(C4CC4)cc3)nc2c1 [Example 669] was tested, and the IC50 was 100 to 500 nM.
For CC[C@H]1CC[C@H](c2ccc(-c3nc4cc(S(=O)(=O)Nc5cc(F)c(C(=O)O)cc5OC)ccc4o3)cc2)CC1 [Example 670, 4-((2-(4-((1r,4r)-4-ethylcyclohexyl)phenyl)benzo[d]oxazole)-5-sulfonamido)-2-fluoro-5-methoxybenzoic acid], the IC50 was 100 to 500 nM.
COc1cc(C(=O)O)cc(F)c1NS(=O)(=O)c1csc(-c2ccc(C3CCC(C)(C)CC3)cc2C(F)(F)F)n1 [Example 671] showed an IC50 of under 100 nM.
Compound COc1cc(C(=O)O)c(F)cc1NS(=O)(=O)c1coc(-c2ccc(C3=CCC(C(C)C)CC3)cc2C(F)(F)F)n1 (stereo not drawn) [Example 672] has an IC50 of under 100 nM.
COc1cc(C(=O)O)c(F)cc1NS(=O)(=O)c1coc(-c2ccc([C@H]3CC[C@@H](C(C)C)CC3)cc2C(F)(F)F)n1 [Example 673] gave an IC50 of 100 to 500 nM.
COc1cc(C(=O)O)c(F)cc1NS(=O)(=O)c1coc(-c2ccc([C@H]3CC[C@H](C(C)C)CC3)cc2C(F)(F)F)n1 [Example 674] showed an IC50 of under 100 nM.
COc1cc(C(=O)O)c(F)cc1NS(=O)(=O)c1coc(-c2ccc(C3=CCC(C)(C)CC3)cc2C(F)(F)F)n1 [Example 675] gave an IC50 of under 100 nM.
With COc1cc(C(=O)O)c(F)cc1NS(=O)(=O)c1coc(-c2ccc(C3CCC(C)(C)CC3)cc2C(F)(F)F)n1 [Example 676] the IC50 was under 100 nM.
Work on COc1cc(C(=O)O)c(F)cc1NS(=O)(=O)c1coc(-c2ccc(C3=CCC(C(F)(F)F)CC3)cc2C(F)(F)F)n1 (stereo not drawn) [Example 677] yielded an IC50 of under 100 nM.
For COc1cc(C(=O)O)c(F)cc1NS(=O)(=O)c1coc(-c2ccc([C@H]3CC[C@@H](C(F)(F)F)CC3)cc2C(F)(F)F)n1 [Example 678], the IC50 was under 100 nM.
COc1cc(C(=O)O)c(F)cc1NS(=O)(=O)c1coc(-c2ccc([C@H]3CC[C@H](C(F)(F)F)CC3)cc2C(F)(F)F)n1 [Example 679] was tested, and the IC50 was under 100 nM.
COc1cc(C(=O)O)c(OC)cc1NS(=O)(=O)c1csc(-c2ccc(C3CCC(C)(C)CC3)cc2C(F)(F)F)n1 [Example 680] showed an IC50 of under 100 nM.
In the case of COc1cc(C(=O)O)c(-c2ccccc2)cc1NS(=O)(=O)c1csc(-c2ccc(C3CCC(C)(C)CC3)cc2C(F)(F)F)n1 [Example 681], the IC50 is reported as 1000 to 100000 nM.
Work on COc1cc(C(=O)O)c(F)cc1N(C)S(=O)(=O)c1csc(-c2ccc(C3CCC(C)(C)CC3)cc2C(F)(F)F)n1 [Example 683] yielded an IC50 of 100 to 500 nM.
COc1cc(C(=O)O)c(F)cc1NS(=O)(=O)c1cnn(-c2ccc(C3CCC(C)(C)CC3)cc2)c1 [Example 684] was tested, and the IC50 was 100 to 500 nM.
In the case of COc1cc(C(=O)O)c(F)cc1NS(=O)(=O)c1cnn(-c2ccc([C@H]3CC[C@@H](C(F)(F)F)CC3)cc2)c1 [Example 685, 2-fluoro-5-methoxy-4-((1-(4-((1s,4s)-4-(trifluoromethyl)cyclohexyl)phenyl)-1H-pyrazole)-4-sulfonamido)benzoic acid], the IC50 is reported as 100 to 500 nM.
COc1cc(C(=O)O)c(F)cc1NS(=O)(=O)c1cnn(-c2ccc([C@H]3CC[C@H](C(F)(F)F)CC3)cc2)c1 [Example 686, 2-fluoro-5-methoxy-4-((1-(4-((1r,4r)-4-(trifluoromethyl)cyclohexyl)phenyl)-1H-pyrazole)-4-sulfonamido)benzoic acid] gave an IC50 of 100 to 500 nM.
COc1cc(C(=O)O)c(F)cc1NS(=O)(=O)c1cnn(-c2ccc([C@H]3CC[C@@H](C(C)C)CC3)cc2)c1 [Example 687] gave an IC50 of 100 to 500 nM.
With COc1cc(C(=O)O)c(F)cc1NS(=O)(=O)c1cnn(-c2ccc([C@H]3CC[C@H](C(C)C)CC3)cc2)c1 [Example 688] the IC50 was 100 to 500 nM.
Work on COc1cc(C(=O)O)c(F)cc1NS(=O)(=O)c1ccn(-c2ccc(C3CCCCC3)cc2)n1 [Example 689] yielded an IC50 of 100 to 500 nM.
In the case of COc1cc(C(=O)O)c(F)cc1NS(=O)(=O)c1ccn(-c2ccc(C3CCC(C)(C)CC3)cc2)n1 [Example 690], the IC50 is reported as 100 to 500 nM.
With COc1cc(C(=O)O)c(F)cc1NS(=O)(=O)c1ccn(-c2ccc([C@H]3CC[C@@H](C(F)(F)F)CC3)cc2)n1 [Example 691] the IC50 was 100 to 500 nM.
Work on COc1cc(C(=O)O)c(F)cc1NS(=O)(=O)c1ccn(-c2ccc([C@H]3CC[C@H](C(F)(F)F)CC3)cc2)n1 [Example 692] yielded an IC50 of 100 to 500 nM.
In the case of COc1cc(C(=O)O)c(F)cc1NS(=O)(=O)c1ccn(-c2ccc([C@H]3CC[C@@H](C(C)C)CC3)cc2)n1 [Example 693], the IC50 is reported as 100 to 500 nM.
COc1cc(C(=O)O)c(F)cc1NS(=O)(=O)c1ccn(-c2ccc([C@H]3CC[C@H](C(C)C)CC3)cc2)n1 [Example 694] was tested, and the IC50 was under 100 nM.
COc1cc(C(=O)O)c(NC(C)=O)cc1NS(=O)(=O)c1csc(-c2ccc(C3CCC(C)(C)CC3)cc2C(F)(F)F)n1 [Example 695] was tested, and the IC50 was 1000 to 100000 nM.
COc1cc(C(=O)O)c(Cl)cc1NS(=O)(=O)c1csc(-c2ccc(C3CCC(C)(C)CC3)cc2C(F)(F)F)n1 [Example 696] showed an IC50 of 500 to 1000 nM.
In the case of CN(C)c1cc(C(=O)O)ccc1NS(=O)(=O)c1csc(-c2ccc(C3CCC(C)(C)CC3)cc2C(F)(F)F)n1 [Example 697], the IC50 is reported as 1000 to 100000 nM.
COc1cc(C(=O)O)c(C2=CCCC2)cc1NS(=O)(=O)c1csc(-c2ccc(C3CCC(C)(C)CC3)cc2C(F)(F)F)n1 [Example 698] showed an IC50 of 1000 to 100000 nM.
COc1cc(C(=O)O)c(C2CC2)cc1NS(=O)(=O)c1csc(-c2ccc(C3CCC(C)(C)CC3)cc2C(F)(F)F)n1 [Example 699] gave an IC50 of 1000 to 100000 nM.
For COc1cc(C(=O)O)c(F)cc1NS(=O)(=O)c1ccc2nc(-c3ccc(C4CCC(C)(C)CC4)cc3)sc2c1 [Example 700], the IC50 was 1000 to 100000 nM.
COc1cc(C(=O)O)c(NS(C)(=O)=O)cc1NS(=O)(=O)c1csc(-c2ccc(C3CCC(C)(C)CC3)cc2C(F)(F)F)n1 [Example 701] gave an IC50 of 1000 to 100000 nM.
With COc1cc(C(=O)O)c(C)cc1NS(=O)(=O)c1csc(-c2ccc(C3CCC(C)(C)CC3)cc2C(F)(F)F)n1 [Example 702] the IC50 was 1000 to 100000 nM.
Work on COc1cc(C(=O)O)c(F)cc1NS(=O)(=O)c1ccc2sc(-c3ccc(C4CCCCC4)cc3C(F)(F)F)nc2c1 [Example 703] yielded an IC50 of 500 to 1000 nM.
With COc1cc(C(=O)O)c(F)cc1NS(=O)(=O)c1ccc2sc(-c3ccc(C4CCC(C)(C)CC4)cc3C(F)(F)F)nc2c1 [Example 704] the IC50 was 100 to 500 nM.
In the case of CNc1cc(C(=O)O)ccc1NS(=O)(=O)c1csc(-c2ccc(C3CCC(C)(C)CC3)cc2C(F)(F)F)n1 [Example 705], the IC50 is reported as 1000 to 100000 nM.
With CCCCC[C@H]1CC[C@H](c2ccc(-c3nc(S(=O)(=O)Nc4cc(F)c(C(=O)O)cc4OC)cs3)cc2)CC1 [Example 706] the IC50 was under 100 nM.
With CCCCC[C@H]1CC[C@H](c2ccc(-c3nc(S(=O)(=O)Nc4ccc(C(=O)O)cc4OC)cs3)c(F)c2)CC1 [Example 707] the IC50 was 100 to 500 nM.
In the case of COc1cc(C(=O)O)ccc1NS(=O)(=O)c1cnc(-c2ccc(C3=CC(C)(C)CC(C)(C)C3)cc2)s1 [Example 708], the IC50 is reported as 100 to 500 nM.
Compound CCC[C@H]1CC[C@H](C2CC=C(c3ccc(-c4ncc(S(=O)(=O)Nc5ccc(C(=O)O)cc5OC)s4)cc3)CC2)CC1 (stereo partly drawn) [Example 709] has an IC50 of 1000 to 100000 nM.
COc1cc(C(=O)O)ccc1NS(=O)(=O)c1cnc(-c2ccc(-c3ccc(C(F)(F)F)c(C(F)(F)F)c3)cc2)s1 [Example 710] was tested, and the IC50 was 100 to 500 nM.
For COc1cc(C(=O)O)ccc1NS(=O)(=O)c1cnc(-c2ccc(C3=C[C@H]4CC[C@]3(C)C4(C)C)cc2)s1 [Example 711], the IC50 was 100 to 500 nM.
COc1cc(C(=O)O)ccc1NS(=O)(=O)c1cnc(-c2ccc([C@H]3CC[C@@H](C(F)(F)F)CC3)cc2)s1 [Example 712] showed an IC50 of under 100 nM.
For COc1cc(C(=O)O)ccc1NS(=O)(=O)c1cnc(-c2ccc([C@H]3CC[C@H](C(F)(F)F)CC3)cc2)s1 [Example 713], the IC50 was under 100 nM.
With COc1cc(C(=O)O)ccc1NS(=O)(=O)c1cnc(-c2ccc(-c3ccc(C(F)(F)C(F)(F)F)cc3)cc2)s1 [Example 714] the IC50 was 100 to 500 nM.
CCC[C@H]1CC[C@H](c2ccc(-c3nc(S(=O)(=O)Nc4cc(F)c(C(=O)O)cc4OC)cs3)cc2)CC1 [Example 715] was tested, and the IC50 was under 100 nM.
With COc1cc(C(=O)O)ccc1NS(=O)(=O)c1csc(-c2ccc(C3=CCC(C(F)(F)F)CC3)cc2)n1 (stereo not drawn) [Example 716] the IC50 was under 100 nM.
COc1cc(C(=O)O)c(F)cc1NS(=O)(=O)c1cnc(-c2ccc(C3=CCC(C(C)(C)C)CC3)cc2)s1 (stereo not drawn) [Example 717] showed an IC50 of under 100 nM.
